Test results reported in patent US9828362B2, “1,4-disubstituted imidazole derivative” (Sumitomo Dainippon Pharma Co., Ltd., priority 2015, dated 2017).

Experiments:
HCT-116 tumor = assay: Anti-tumor effect to HCT-116 tumor-bearing mouse; type: in vivo; settings: nude mouse, oral, dosage 30 mg/kg, administration period 17 days, tumor volume
Text: The present compound can be used to evaluate the anti-tumor effect thereof. A 4 to 7-week-old nude mouse (BALB/cAnNCrj-nu/nu, female, CHARLES RIVER LABORATORIES JAPAN, INC.) received intradermal transplantation of HCT-116 cells (ATCC) in an amount of 3×10^6 cells/mouse around the ventral portion. The engraftment of HCT-116 cells was observed 5 to 14 days after the transplantation, and then each compound suspended in a solvent such as 0.5% methylcellulose solution was orally administrated to the mouse in a dose of 1 to 100 mg/kg one to twice daily. The tumor volume was measured over time after the administration. to evaluate the effect for reducing the tumor volume by the administration of each compound. The tumor volume can be calculated from the minor axis and the major axis of the tumor measured with a digital caliper (Mitutoyo) according to the following formula: Tumor volume [mm^3]=0.5×minor axis [mm]×(major axis [ram])^2
The tumor volume is control administration group treated. with only a solvent such as 0.5% methylcellulose solution was compared with that of the present compound administration group, and T/C value was calculated according the following formula to evaluate the anti-tumor effect of the present compound. […]

HCT-116 cells = assay: Test for inhibiting sphere-forming ability of cancer cells (in the presence of BSA); type: cell-based; settings: Homo sapiens, 96 h, Ultra-Low Attachment plate, medium with 5% bovine serum albumin (BSA), cultured 4 days, CellTiter-Glo, read-out: Sphere IC50 value (concentration for 50% inhibition of cell proliferation)
Description: HCT-116 cells were available from the American Type Culture Collection (ATCC). HCT-116 cells were cultured at 37° C. and 5% CO2 using the McCoy's 5a medium containing 10% fetal bovine serum (FBS) and 1% penicillin/streptomycin. […] The test compounds were added into each well to adjust the final concentration of DMSO to 0.1%, and the cells were cultured for 4 days.

| IC50 (HCT-116 cells) [µM] | SMILES | T/C (%) (HCT-116 tumor) |
| --- | --- | --- |
|  | Nc1cc(C(=O)Nc2cn(Cc3cc(F)c(F)c(F)c3)cn2)cnc1CO [Example 46] | 91 |
| > 10 | CC(C)(O)c1ccc(/C=C/C(=O)Nc2cn(Cc3cccc(C(F)(F)F)c3)cn2)cn1 [Example 53, (2E)-3-[6-(2-Hydroxypropan-2-yl)pyridin-3-yl]-N-{1-[3-(trifluoromethyl)benzyl]-1H-imidazol-4-yl}prop-2-enamide] |  |
